PubChem BioAssay AID1963843 (Molecular Pharmacology Branch, DTP, NCI, 2024)

System: 616215-338-R-J1-PDC complex spheroid viability
Test: Anticancer human tumor 616215-338-R-J1-PDC patient-derived colon adenocarcinoma cell line growth inhibition [POLQ]
Details: for IC50: curve of first compound; for viability, T/C: stronger effect = lower value; active means viability on the fitted dose curve at most 10% of control; inactive means the rest
In short: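 Complex spheroid viability model combining PDC tumour cells with endothelial (HUVEC) and MSC stromal cells. Novobiocin, ART-558 or RP6685 were tested singly and in combination with standard and investigational anticancer drugs. Each was titrated in half-log steps from near clinical Cmax, or from 10 microM where Cmax was unknown.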

[1] = second compound 0.0316 µM, first compound 0.00316 µM
[2] = second compound 0.0316 µM, first compound 0.01 µM
[3] = second compound 0.0316 µM, first compound 0.0316 µM
[4] = second compound 0.0316 µM, first compound 0.1 µM
[5] = second compound 0.0316 µM, first compound 0.316 µM
[6] = second compound 0.0316 µM, first compound 1 µM
[7] = second compound 0.1 µM, first compound 0.00316 µM
[8] = second compound 0.1 µM, first compound 0.01 µM
[9] = second compound 0.1 µM, first compound 0.0316 µM
[10] = second compound 0.1 µM, first compound 0.1 µM
[11] = second compound 0.1 µM, first compound 0.316 µM
[12] = second compound 0.1 µM, first compound 1 µM
[13] = second compound 0.316 µM, first compound 0.00316 µM
[14] = second compound 0.316 µM, first compound 0.01 µM
[15] = second compound 0.316 µM, first compound 0.0316 µM
[16] = second compound 0.316 µM, first compound 0.1 µM
[17] = second compound 0.316 µM, first compound 0.316 µM
[18] = second compound 0.316 µM, first compound 1 µM
[19] = second compound 1 µM, first compound 0.00316 µM
[20] = second compound 1 µM, first compound 0.01 µM
[21] = second compound 1 µM, first compound 0.0316 µM
[22] = second compound 1 µM, first compound 0.1 µM
[23] = second compound 1 µM, first compound 0.316 µM
[24] = second compound 1 µM, first compound 1 µM
[25] = second compound 3.16 µM, first compound 0.00316 µM
[26] = second compound 3.16 µM, first compound 0.01 µM
[27] = second compound 3.16 µM, first compound 0.0316 µM
[28] = second compound 3.16 µM, first compound 0.1 µM
[29] = second compound 3.16 µM, first compound 0.316 µM
[30] = second compound 3.16 µM, first compound 1 µM
[31] = second compound 10 µM, first compound 0.00316 µM
[32] = second compound 10 µM, first compound 0.01 µM
[33] = second compound 10 µM, first compound 0.0316 µM
[34] = second compound 10 µM, first compound 0.1 µM
[35] = second compound 10 µM, first compound 0.316 µM
[36] = second compound 10 µM, first compound 1 µM
[37] = second compound 0.0316 µM, first compound 3.16 µM
[38] = second compound 0.0316 µM, first compound 10 µM
[39] = second compound 0.1 µM, first compound 3.16 µM
[40] = second compound 0.1 µM, first compound 10 µM
[41] = second compound 0.316 µM, first compound 3.16 µM
[42] = second compound 0.316 µM, first compound 10 µM
[43] = second compound 1 µM, first compound 3.16 µM
[44] = second compound 1 µM, first compound 10 µM
[45] = second compound 3.16 µM, first compound 3.16 µM
[46] = second compound 3.16 µM, first compound 10 µM
[47] = second compound 10 µM, first compound 3.16 µM
[48] = second compound 10 µM, first compound 10 µM
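Further: spheroids exposed to compounds for one week before readout.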
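Wherever viability, T/C is given: percent viability relative to DMSO vehicle wells taken as 100%.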

C=CCn1c(=O)c2cnc(Nc3ccc(N4CCN(C)CC4)cc3)nc2n1-c1cccc(C(C)(C)O)n1 + Nc1ccc(C#CCN(C(=O)Cc2ncc(C(F)(F)F)cc2C(F)(F)F)c2ccc(F)cc2)nn1
359 nM: IC50 (second compound 3.16 µM)
430 nM: IC50 (second compound 0.0316 µM)
365 nM: IC50 (second compound 1 µM)
285 nM: IC50 (second compound 0.1 µM)
244 nM: IC50 (second compound 10 µM)
inactive: viability, T/C [1] 102% | viability, T/C [2] 98.7% | viability, T/C [3] 98.4% | viability, T/C [4] 96.9% | viability, T/C [5] 55.4% | viability, T/C [6] 35.4% | viability, T/C [7] 102% | viability, T/C [8] 89.1% | viability, T/C [9] 96.8% | viability, T/C [10] 97.1% | viability, T/C [11] 45.3% | viability, T/C [12] 29.1% | viability, T/C [13] 99.8% | viability, T/C [14] 111% | viability, T/C [15] 107% | viability, T/C [16] 83% | viability, T/C [17] 49.9% | viability, T/C [18] 28.1% | viability, T/C [19] 98.9% | viability, T/C [20] 103% | viability, T/C [21] 100% | viability, T/C [22] 96.8% | viability, T/C [23] 53.2% | viability, T/C [24] 27.6% | viability, T/C [25] 90% | viability, T/C [26] 97.9% | viability, T/C [27] 94.6% | viability, T/C [28] 87.9% | viability, T/C [29] 52.9% | viability, T/C [30] 27% | viability, T/C [31] 79% | viability, T/C [32] 91.4% | viability, T/C [33] 91.1% | viability, T/C [34] 79.3% | viability, T/C [35] 41.4% | viability, T/C [36] 26.5%
302 nM: IC50 (second compound 0.316 µM)

CC[C@@]1(O)C(=O)OCc2c1cc1n(c2=O)Cc2cc3c(CN(C)C)c(O)ccc3nc2-1 + Nc1ccc(C#CCN(C(=O)Cc2ncc(C(F)(F)F)cc2C(F)(F)F)c2ccc(F)cc2)nn1
69.9 nM: IC50 (second compound 0.0316 µM)
66.6 nM: IC50 (second compound 1 µM)
59.4 nM: IC50 (second compound 3.16 µM)
73 nM: IC50 (second compound 0.1 µM)
66.3 nM: IC50 (second compound 0.316 µM)
46.1 nM: IC50 (second compound 10 µM)
inactive: viability, T/C (second compound 0.0316 µM, first compound 0.000316 µM) 112% | viability, T/C (second compound 0.0316 µM, first compound 0.001 µM) 105% | viability, T/C [1] 100% | viability, T/C [2] 101% | viability, T/C [3] 89.4% | viability, T/C [4] 32.3% | viability, T/C (second compound 0.1 µM, first compound 0.000316 µM) 103% | viability, T/C (second compound 0.1 µM, first compound 0.001 µM) 103% | viability, T/C [7] 98.1% | viability, T/C [8] 102% | viability, T/C [9] 83.4% | viability, T/C [10] 37.5% | viability, T/C (second compound 0.316 µM, first compound 0.000316 µM) 111% | viability, T/C (second compound 0.316 µM, first compound 0.001 µM) 119% | viability, T/C [13] 98.6% | viability, T/C [14] 99.3% | viability, T/C [15] 79.8% | viability, T/C [16] 33.6% | viability, T/C (second compound 1 µM, first compound 0.000316 µM) 108% | viability, T/C (second compound 1 µM, first compound 0.001 µM) 96.6% | viability, T/C [19] 107% | viability, T/C [20] 104% | viability, T/C [21] 66.1% | viability, T/C [22] 41.1% | viability, T/C (second compound 3.16 µM, first compound 0.000316 µM) 97.9% | viability, T/C (second compound 3.16 µM, first compound 0.001 µM) 108% | viability, T/C [25] 98.2% | viability, T/C [26] 98.3% | viability, T/C [27] 75.3% | viability, T/C [28] 29.1% | viability, T/C (second compound 10 µM, first compound 0.000316 µM) 85.5% | viability, T/C (second compound 10 µM, first compound 0.001 µM) 90.1% | viability, T/C [31] 96.4% | viability, T/C [32] 94.2% | viability, T/C [33] 55.8% | viability, T/C [34] 38%

Nc1ccn(C2OC(CO)C(O)C2(F)F)c(=O)n1 (stereo not drawn) + Nc1ccc(C#CCN(C(=O)Cc2ncc(C(F)(F)F)cc2C(F)(F)F)c2ccc(F)cc2)nn1
< 31.6 nM: IC50 (second compound 0.0316 µM) | IC50 (second compound 0.1 µM) | IC50 (second compound 0.316 µM) | IC50 (second compound 1 µM) | IC50 (second compound 3.16 µM) | IC50 (second compound 10 µM)
inactive: viability, T/C [3] 22.1% | viability, T/C [4] 17.1% | viability, T/C [5] 10.8% | viability, T/C [6] 10.9% | viability, T/C [37] 14.9% | viability, T/C [38] 16.1% | viability, T/C [9] 27.7% | viability, T/C [10] 15.5% | viability, T/C [11] 12.6% | viability, T/C [12] 12.6% | viability, T/C [39] 12.6% | viability, T/C [40] 12.6% | viability, T/C [15] 28.6% | viability, T/C [16] 24.1% | viability, T/C [17] 10.9% | viability, T/C [18] 13.3% | viability, T/C [41] 12.6% | viability, T/C [42] 13.8% | viability, T/C [21] 22.7% | viability, T/C [22] 15.2% | viability, T/C [23] 11.2% | viability, T/C [24] 12.6% | viability, T/C [43] 13.1% | viability, T/C [44] 13.3% | viability, T/C [27] 23.6% | viability, T/C [28] 19.6% | viability, T/C [29] 12% | viability, T/C [30] 10.3% | viability, T/C [45] 13.6% | viability, T/C [46] 13.9% | viability, T/C [33] 26.8% | viability, T/C [34] 20.3% | viability, T/C [35] 12.2% | viability, T/C [36] 12.6% | viability, T/C [47] 11.3% | viability, T/C [48] 12.2%

O=C(c1cc(Cc2n[nH]c(=O)c3ccccc23)ccc1F)N1CCN(C(=O)C2CC2)CC1 + Nc1ccc(C#CCN(C(=O)Cc2ncc(C(F)(F)F)cc2C(F)(F)F)c2ccc(F)cc2)nn1
8940 nM: IC50 (second compound 0.316 µM)
9490 nM: IC50 (second compound 10 µM)
inactive: viability, T/C [3] 102% | viability, T/C [4] 99% | viability, T/C [5] 113% | viability, T/C [6] 99.9% | viability, T/C [37] 88.5% | viability, T/C [38] 55.5% | viability, T/C [9] 110% | viability, T/C [10] 94.7% | viability, T/C [11] 104% | viability, T/C [12] 94.1% | viability, T/C [39] 88.6% | viability, T/C [40] 66.9% | viability, T/C [15] 105% | viability, T/C [16] 103% | viability, T/C [17] 92.6% | viability, T/C [18] 88.3% | viability, T/C [41] 102% | viability, T/C [42] 44.8% | viability, T/C [21] 99.8% | viability, T/C [22] 97.6% | viability, T/C [23] 94.4% | viability, T/C [24] 103% | viability, T/C [43] 80% | viability, T/C [44] 55% | viability, T/C [27] 112% | viability, T/C [28] 107% | viability, T/C [29] 99.6% | viability, T/C [30] 93.3% | viability, T/C [45] 98.1% | viability, T/C [46] 54.1% | viability, T/C [33] 96.3% | viability, T/C [34] 88.7% | viability, T/C [35] 80.7% | viability, T/C [36] 79.7% | viability, T/C [47] 81.3% | viability, T/C [48] 47.9%
> 10000 nM: IC50 (second compound 0.0316 µM) | IC50 (second compound 0.1 µM) | IC50 (second compound 1 µM) | IC50 (second compound 3.16 µM)
